In ChEMBL document CHEMBL1154043, “Synthesis and structure-activity relationship of a novel series of heterocyclic sulfonamide gamma-secretase inhibitors” (Bioorg Med Chem, 2009):
Active and inactive are the calls of the source. The rule behind the calls is not given here.

test system: not listed separately; test: Inhibition of gamma-secretase-mediated mouse notch cleavage expressed in CHOK1 cells assessed as secreted alkaline phosphatase level after 48 hrs by chemiluminescence assay; assay type: cell-based; settings: CHO-K1, 48 h

| EC50 | Structure (SMILES) |
| --- | --- |
| 2650 nM | CCC(CC)[C@H](NS(=O)(=O)c1ccc(Cl)s1)c1ccnn1Cc1ccc(OC)cc1 |
| 6120 nM | COc1ccc(-n2nccc2[C@@H](NS(=O)(=O)c2ccc(Cl)s2)C(C)C)cc1 |
| 3970 nM | CCC(CC)[C@H](NS(=O)(=O)c1ccc(Cl)s1)c1ccnn1-c1ccc(OC)cc1 |
| 12600 nM | Cc1ccc(-n2nccc2[C@@H](NS(=O)(=O)c2ccc(Cl)s2)C(C)C)cc1 |
| 3260 nM | CC(C)[C@H](NS(=O)(=O)c1ccc(Cl)s1)c1ccnn1-c1ccc(O)cc1 |

test system: CHO; test: Inhibition of gamma-secretase-mediated cleavage of human APP expressed in CHO cells assessed as reduction in amyloid beta42 production after 24 hrs by double sandwich ELISA; assay type: cell-based; settings: not given

| Structure (SMILES) | Activity |
| --- | --- |
| COc1ccc(Cn2nccc2C(NS(=O)(=O)c2ccc(Cl)s2)C(C)C)cc1 (stereo unspecified) | Active |
| CCC(CC)C(NS(=O)(=O)c1ccc(Cl)s1)c1ccnn1-c1ccc(O)cc1 (stereo unspecified) | Active |
| CCC(CC)C(NS(=O)(=O)c1ccc(Br)cc1)c1ccnn1Cc1ccc(OC)cc1 (stereo unspecified) | Active |
| CCCC(NS(=O)(=O)c1ccc(Cl)s1)c1ccnn1Cc1ccc(OC)cc1 (stereo unspecified) | Active |
| CCC(CC)C(NS(=O)(=O)c1ccc(Cl)s1)c1nccn1Cc1ccccc1 (stereo unspecified) | Active |
| CCC(CC)C(NS(=O)(=O)c1ccc(Cl)s1)c1ccnn1Cc1ccc(OC)cc1 (stereo unspecified) | Active |
| CCC(CC)C(c1ccnn1-c1ccccc1)N(C)S(=O)(=O)c1ccc(Br)s1 (stereo unspecified) | Active |
| CCC(CC)C(NS(=O)(=O)c1ccc(Cl)s1)c1ccnn1Cc1ccc(O)cc1 (stereo unspecified) | Active |
| CC(C)C(NS(=O)(=O)c1ccc(Cl)s1)c1ncnn1Cc1ccccc1 (stereo unspecified) | Active |
| CCC(CC)[C@@H](NS(=O)(=O)c1ccc(Cl)s1)c1ccnn1Cc1ccc(OC)cc1 | Active |
| COc1ccc(Cn2cccc2C(NS(=O)(=O)c2ccc(Cl)s2)C(C)C)cc1 (stereo unspecified) | Active |
| CCC(CC)C(NS(=O)(=O)c1ccc(Cl)s1)c1ncnn1Cc1ccc(F)cc1 (stereo unspecified) | Active |
| CCC(CC)C(NS(=O)(=O)c1ccc(Cl)s1)c1ncnn1Cc1ccc(OC)cc1 (stereo unspecified) | Active |
| CC(C)C(NS(=O)(=O)c1ccc(Cl)s1)c1ccnn1-c1ccccc1 (stereo unspecified) | Active |
| CCC(CC)[C@H](NS(=O)(=O)c1ccc(Cl)s1)c1ccnn1Cc1ccc(OC)cc1 | Active |
| CCC(CC)C(NS(=O)(=O)c1ccc(Cl)s1)c1ncnn1Cc1ccc(C)cc1 (stereo unspecified) | Active |
| CC(C)[C@@H](NS(=O)(=O)c1ccc(Cl)s1)c1ccnn1-c1ccc(F)cc1 | Active |
| CC(C)C(NS(=O)(=O)c1ccc(Cl)s1)c1ccnn1-c1ccc(F)cc1 (stereo unspecified) | Active |
| CCC(CC)C(NS(=O)(=O)c1ccc(Cl)s1)c1ccn[nH]1 (stereo unspecified) | Active |
| COc1ccc(-n2nccc2[C@@H](NS(=O)(=O)c2ccc(Cl)s2)C(C)C)cc1 | Active |
| Cc1ccc(-n2nccc2C(NS(=O)(=O)c2ccc(Cl)s2)C(C)C)cc1 (stereo unspecified) | Active |
| CCC(CC)[C@H](NS(=O)(=O)c1ccc(Cl)s1)c1ccnn1-c1ccc(OC)cc1 | Active |
| Cc1ccc(-n2nccc2[C@@H](NS(=O)(=O)c2ccc(Cl)s2)C(C)C)cc1 | Active |
| CC(C)[C@H](NS(=O)(=O)c1ccc(Cl)s1)c1ccnn1-c1ccc(O)cc1 | Active |

test system: not listed separately; test: Inhibition of gamma-secretase-mediated cleavage of human APP expressed in CHO cells assessed as reduction in amyloid beta40 production after 24 hrs by double sandwich ELISA; assay type: cell-based; settings: not given

| Structure (SMILES) | EC50 |
| --- | --- |
| CCC(CC)C(NS(=O)(=O)c1ccc(Br)cc1)c1ccnn1Cc1ccc(OC)cc1 (stereo unspecified) | 2270 nM |
| CCCC(NS(=O)(=O)c1ccc(Cl)s1)c1ccnn1Cc1ccc(OC)cc1 (stereo unspecified) | 930 nM |
| CCC(CC)C(NS(=O)(=O)c1ccc(Cl)s1)c1nccn1Cc1ccccc1 (stereo unspecified) | 19400 nM |
| CCC(CC)C(c1ccnn1-c1ccccc1)N(C)S(=O)(=O)c1ccc(Br)s1 (stereo unspecified) | 65100 nM |
| CC(C)C(NS(=O)(=O)c1ccc(Cl)s1)c1ncnn1Cc1ccccc1 (stereo unspecified) | 3360 nM |
| CCC(CC)[C@@H](NS(=O)(=O)c1ccc(Cl)s1)c1ccnn1Cc1ccc(OC)cc1 | > 15000 nM |
| COc1ccc(Cn2cccc2C(NS(=O)(=O)c2ccc(Cl)s2)C(C)C)cc1 (stereo unspecified) | 13300 nM |
| CCC(CC)C(NS(=O)(=O)c1ccc(Cl)s1)c1ncnn1Cc1ccc(OC)cc1 (stereo unspecified) | 940 nM |
| CC(C)C(NS(=O)(=O)c1ccc(Cl)s1)c1ccnn1-c1ccccc1 (stereo unspecified) | 1120 nM |
| CC(C)[C@@H](NS(=O)(=O)c1ccc(Cl)s1)c1ccnn1-c1ccc(F)cc1 | > 15000 nM |
| CC(C)C(NS(=O)(=O)c1ccc(Cl)s1)c1ccnn1-c1ccc(F)cc1 (stereo unspecified) | 2760 nM |
| CCC(CC)C(NS(=O)(=O)c1ccc(Cl)s1)c1ccn[nH]1 (stereo unspecified) | 19500 nM |
| CCC(CC)[C@H](NS(=O)(=O)c1ccc(Cl)s1)c1ccnn1-c1ccc(OC)cc1 | 990 nM |

The next compounds have a lower EC50 than those just listed; values first:

| EC50 | Structure (SMILES) |
| --- | --- |
| 880 nM | CCC(CC)C(NS(=O)(=O)c1ccc(Cl)s1)c1ncnn1Cc1ccc(C)cc1 (stereo unspecified) |
| 630 nM | CCC(CC)C(NS(=O)(=O)c1ccc(Cl)s1)c1ccnn1-c1ccc(O)cc1 (stereo unspecified) |
| 550 nM | COc1ccc(-n2nccc2[C@@H](NS(=O)(=O)c2ccc(Cl)s2)C(C)C)cc1 |
| 480 nM | CCC(CC)C(NS(=O)(=O)c1ccc(Cl)s1)c1ncnn1Cc1ccc(F)cc1 (stereo unspecified) |
| 470 nM | CC(C)[C@H](NS(=O)(=O)c1ccc(Cl)s1)c1ccnn1-c1ccc(O)cc1 |
| 420 nM | Cc1ccc(-n2nccc2C(NS(=O)(=O)c2ccc(Cl)s2)C(C)C)cc1 (stereo unspecified) |
| 410 nM | COc1ccc(Cn2nccc2C(NS(=O)(=O)c2ccc(Cl)s2)C(C)C)cc1 (stereo unspecified) |
| 320 nM | Cc1ccc(-n2nccc2[C@@H](NS(=O)(=O)c2ccc(Cl)s2)C(C)C)cc1 |
| 140 nM | CCC(CC)C(NS(=O)(=O)c1ccc(Cl)s1)c1ccnn1Cc1ccc(O)cc1 (stereo unspecified) |
| 130 nM | CCC(CC)C(NS(=O)(=O)c1ccc(Cl)s1)c1ccnn1Cc1ccc(OC)cc1 (stereo unspecified) |
| 110 nM | CCC(CC)[C@H](NS(=O)(=O)c1ccc(Cl)s1)c1ccnn1Cc1ccc(OC)cc1 |

test system: not listed separately; test: Selectivity ratio of EC50 for gamma-secretase-mediated mouse notch cleavage to EC50 for gamma-secretase-mediated amyloid beta40 production; settings: not given

| Selectivity ratio | Structure (SMILES) |
| --- | --- |
| 24 | CCC(CC)[C@H](NS(=O)(=O)c1ccc(Cl)s1)c1ccnn1Cc1ccc(OC)cc1 |
| 11 | COc1ccc(-n2nccc2[C@@H](NS(=O)(=O)c2ccc(Cl)s2)C(C)C)cc1 |
| 4 | CCC(CC)[C@H](NS(=O)(=O)c1ccc(Cl)s1)c1ccnn1-c1ccc(OC)cc1 |
| 39 | Cc1ccc(-n2nccc2[C@@H](NS(=O)(=O)c2ccc(Cl)s2)C(C)C)cc1 |
| 6.9 | CC(C)[C@H](NS(=O)(=O)c1ccc(Cl)s1)c1ccnn1-c1ccc(O)cc1 |

test system: not listed separately; test: Inhibition of gamma-secretase assessed as increase in beta-C-terminal fragment level after 24 hrs by double sandwich ELISA; settings: not given

| Structure (SMILES) | Activity |
| --- | --- |
| CCC(CC)C(NS(=O)(=O)c1ccc(Br)cc1)c1ccnn1Cc1ccc(OC)cc1 (stereo unspecified) | Active |
| CCCC(NS(=O)(=O)c1ccc(Cl)s1)c1ccnn1Cc1ccc(OC)cc1 (stereo unspecified) | Active |
| CCC(CC)C(NS(=O)(=O)c1ccc(Cl)s1)c1nccn1Cc1ccccc1 (stereo unspecified) | Active |
| CCC(CC)C(c1ccnn1-c1ccccc1)N(C)S(=O)(=O)c1ccc(Br)s1 (stereo unspecified) | Active |
| CC(C)C(NS(=O)(=O)c1ccc(Cl)s1)c1ncnn1Cc1ccccc1 (stereo unspecified) | Active |
| CCC(CC)[C@@H](NS(=O)(=O)c1ccc(Cl)s1)c1ccnn1Cc1ccc(OC)cc1 | Active |
| COc1ccc(Cn2cccc2C(NS(=O)(=O)c2ccc(Cl)s2)C(C)C)cc1 (stereo unspecified) | Active |
| CCC(CC)C(NS(=O)(=O)c1ccc(Cl)s1)c1ncnn1Cc1ccc(OC)cc1 (stereo unspecified) | Active |
| CC(C)C(NS(=O)(=O)c1ccc(Cl)s1)c1ccnn1-c1ccccc1 (stereo unspecified) | Active |
| CC(C)[C@@H](NS(=O)(=O)c1ccc(Cl)s1)c1ccnn1-c1ccc(F)cc1 | Active |
| CC(C)C(NS(=O)(=O)c1ccc(Cl)s1)c1ccnn1-c1ccc(F)cc1 (stereo unspecified) | Active |
| CCC(CC)C(NS(=O)(=O)c1ccc(Cl)s1)c1ccn[nH]1 (stereo unspecified) | Active |
| CCC(CC)[C@H](NS(=O)(=O)c1ccc(Cl)s1)c1ccnn1-c1ccc(OC)cc1 | Active |

The next lines start with the values.

| Activity | Structure (SMILES) |
| --- | --- |
| Active | CCC(CC)C(NS(=O)(=O)c1ccc(Cl)s1)c1ncnn1Cc1ccc(C)cc1 (stereo unspecified) |
| Active | CCC(CC)C(NS(=O)(=O)c1ccc(Cl)s1)c1ccnn1-c1ccc(O)cc1 (stereo unspecified) |
| Active | COc1ccc(-n2nccc2[C@@H](NS(=O)(=O)c2ccc(Cl)s2)C(C)C)cc1 |
| Active | CCC(CC)C(NS(=O)(=O)c1ccc(Cl)s1)c1ncnn1Cc1ccc(F)cc1 (stereo unspecified) |
| Active | CC(C)[C@H](NS(=O)(=O)c1ccc(Cl)s1)c1ccnn1-c1ccc(O)cc1 |
| Active | Cc1ccc(-n2nccc2C(NS(=O)(=O)c2ccc(Cl)s2)C(C)C)cc1 (stereo unspecified) |
| Active | COc1ccc(Cn2nccc2C(NS(=O)(=O)c2ccc(Cl)s2)C(C)C)cc1 (stereo unspecified) |
| Active | Cc1ccc(-n2nccc2[C@@H](NS(=O)(=O)c2ccc(Cl)s2)C(C)C)cc1 |
| Active | CCC(CC)C(NS(=O)(=O)c1ccc(Cl)s1)c1ccnn1Cc1ccc(O)cc1 (stereo unspecified) |
| Active | CCC(CC)C(NS(=O)(=O)c1ccc(Cl)s1)c1ccnn1Cc1ccc(OC)cc1 (stereo unspecified) |
| Active | CCC(CC)[C@H](NS(=O)(=O)c1ccc(Cl)s1)c1ccnn1Cc1ccc(OC)cc1 |

test system: not listed separately; test: Inhibition of gamma-secretase assessed as effect on APP level after 24 hrs by double sandwich ELISA; settings: not given

| Structure (SMILES) | Activity |
| --- | --- |
| CCC(CC)C(NS(=O)(=O)c1ccc(Br)cc1)c1ccnn1Cc1ccc(OC)cc1 (stereo unspecified) | Active |
| CCCC(NS(=O)(=O)c1ccc(Cl)s1)c1ccnn1Cc1ccc(OC)cc1 (stereo unspecified) | Active |
| CCC(CC)C(NS(=O)(=O)c1ccc(Cl)s1)c1nccn1Cc1ccccc1 (stereo unspecified) | Active |
| CCC(CC)C(c1ccnn1-c1ccccc1)N(C)S(=O)(=O)c1ccc(Br)s1 (stereo unspecified) | Active |
| CC(C)C(NS(=O)(=O)c1ccc(Cl)s1)c1ncnn1Cc1ccccc1 (stereo unspecified) | Active |
| CCC(CC)[C@@H](NS(=O)(=O)c1ccc(Cl)s1)c1ccnn1Cc1ccc(OC)cc1 | Active |
| COc1ccc(Cn2cccc2C(NS(=O)(=O)c2ccc(Cl)s2)C(C)C)cc1 (stereo unspecified) | Active |
| CCC(CC)C(NS(=O)(=O)c1ccc(Cl)s1)c1ncnn1Cc1ccc(OC)cc1 (stereo unspecified) | Active |
| CC(C)C(NS(=O)(=O)c1ccc(Cl)s1)c1ccnn1-c1ccccc1 (stereo unspecified) | Active |
| CC(C)[C@@H](NS(=O)(=O)c1ccc(Cl)s1)c1ccnn1-c1ccc(F)cc1 | Active |
| CC(C)C(NS(=O)(=O)c1ccc(Cl)s1)c1ccnn1-c1ccc(F)cc1 (stereo unspecified) | Active |
| CCC(CC)C(NS(=O)(=O)c1ccc(Cl)s1)c1ccn[nH]1 (stereo unspecified) | Active |
| CCC(CC)[C@H](NS(=O)(=O)c1ccc(Cl)s1)c1ccnn1-c1ccc(OC)cc1 | Active |

The next lines start with the values.

| Activity | Structure (SMILES) |
| --- | --- |
| Active | CCC(CC)C(NS(=O)(=O)c1ccc(Cl)s1)c1ncnn1Cc1ccc(C)cc1 (stereo unspecified) |
| Active | CCC(CC)C(NS(=O)(=O)c1ccc(Cl)s1)c1ccnn1-c1ccc(O)cc1 (stereo unspecified) |
| Active | COc1ccc(-n2nccc2[C@@H](NS(=O)(=O)c2ccc(Cl)s2)C(C)C)cc1 |
| Active | CCC(CC)C(NS(=O)(=O)c1ccc(Cl)s1)c1ncnn1Cc1ccc(F)cc1 (stereo unspecified) |
| Active | CC(C)[C@H](NS(=O)(=O)c1ccc(Cl)s1)c1ccnn1-c1ccc(O)cc1 |
| Active | Cc1ccc(-n2nccc2C(NS(=O)(=O)c2ccc(Cl)s2)C(C)C)cc1 (stereo unspecified) |
| Active | COc1ccc(Cn2nccc2C(NS(=O)(=O)c2ccc(Cl)s2)C(C)C)cc1 (stereo unspecified) |
| Active | Cc1ccc(-n2nccc2[C@@H](NS(=O)(=O)c2ccc(Cl)s2)C(C)C)cc1 |
| Active | CCC(CC)C(NS(=O)(=O)c1ccc(Cl)s1)c1ccnn1Cc1ccc(O)cc1 (stereo unspecified) |
| Active | CCC(CC)C(NS(=O)(=O)c1ccc(Cl)s1)c1ccnn1Cc1ccc(OC)cc1 (stereo unspecified) |
| Active | CCC(CC)[C@H](NS(=O)(=O)c1ccc(Cl)s1)c1ccnn1Cc1ccc(OC)cc1 |
